Assay results as given in patent publication US12414958B2, “Medicament and use thereof for treating bacterial infections involving biofilm” (Debiopharm International S.A., priority 2019, dated 2025).
“And” between values parts separate entries of the source, which are not always exact repeats. Equal entries are not always repeated.

System: S. aureus ATCC 43300 (MRSA)
Assay: Mouse tissue cage model of MRSA infection, 5.5-day treatment (Example 2)
Assay type: in vivo, Staphylococcus aureus
Conditions: for Cure rate (%) / adherent bacteria reduction from baseline (mean±SD): 24-h biofilm; for Cure rate (%) / Planktonic day 3 Δlog (individual animal) / adherent bacteria reduction from baseline (mean±SD): 5.5-day treatment; for Cure rate (%): cages without growth / total cages; for Adherent Mean / Adherent Δlog (individual animal): medium after sonication of explanted tissue cages, day 9 vs day 1; for Adherent Mean: group mean; for day on which bactericidal effect (mean reduction of bacterial load by ≥3 Log10) on planktonic bacteria was exerted: planktonic bacteria in tissue cage fluid, time points day 3, 6, 9; for Planktonic day 3 Mean / Planktonic day 6 Mean / Planktonic day 9 Mean / Planktonic day 3 Δlog (individual animal) / Planktonic day 9 Δlog (individual animal) / Planktonic day 6 Δlog (individual animal): tissue cage fluid; for Planktonic day 3 Mean / Planktonic day 6 Mean / Planktonic day 9 Mean: group mean Δlog from baseline (day 1); for Planktonic day 3 Δlog (individual animal) / Planktonic day 9 Δlog (individual animal) / Planktonic day 6 Δlog (individual animal): reduction from baseline (day 1); for Planktonic day 3 Δlog (individual animal): C57BL/6 mice; for Planktonic day 9 Δlog (individual animal): 3 days after end of treatment; for adherent bacteria reduction from baseline (mean±SD): n=3, given as positive reduction
Source text: The purpose of this study was to evaluate the efficacy of Debio 1450 BES alone and in combination with Daptomycin (DAP) in the mouse tissue cage model of implant-associated infections caused by methicillin resistant Staphylococcus (S.) aureus (MRSA). The efficacy against 24-h biofilm of S. aureus ATCC 43300 (MRSA) was investigated and compared to the standard of care combination of rifampicin (RIF) and DAP at the human equivalent doses. Employing a small initial inoculum (ca. 300 CFU/cage) together with a 24-h biofilm allowed to simulate clinical settings of an acute implant infection and/or surgical debridement.
The tissue cage model of prosthetic joint infections is very well-established and closely mimics the human prosthetic joint infections. This model is based on subcutaneous insertion of tissue cages followed by experimental infection of the foreign body by injection of bacterial inoculum into the cages.
In brief, one sterile polytetrafluorethylene (Teflon) cylinder (32×10 mm), perforated by 130 regularly spaced holes of 1 mm diameter (tissue cages; Angst-Pfister AG, Zürich) was aseptically implanted subcutaneously into the back of C57BL/6 mice (minimum weight 20 g). Experiments were started after complete wound healing (minimum 2 weeks after surgery). For the efficacy study presented here the cages in all animals were infected with around 300 colony-forming units (CFU) of the MRSA strain ATCC 43300 per cage and the biofilm were developed for 24 h before the beginning of the treatment.
The animals received antibiotic treatment i.p. (Debio 1450 BES and DAP) or sc (RIF) on day 1, 2, 3, 4, 5, and 6 (only the morning administration on day 6). One group received only 5% glucose and served as infected, untreated control group (vehicle). […] Debio 1450 and vehicle were administered bid, and qdam on day 6. DAP and RIF were administered qdam. The 50 mg/kg dose of Debio 1450 BES was selected as the HED. The DAP dose of […] was chosen as it closely correlates with the human clinical dosage of 10 mg/kg once daily. The RIF dose of 25 mg/kg is among the most commonly used in the treatment of experimental biofilm infections.
Five to 6 days before infection, TCF is aspirated to ascertain the sterility of implanted cages by TCF plating on blood agar plates. […] In addition, the number of bacteria in TCF was determined on day 3 (before the first injection that day), on day 6 (before last treatment), and on day 9 (before explantation of the cages) to evaluate the treatment efficacy against planktonic bacteria. The mouse number and bacterial count for the given cage were reported to analyse the time course of antibacterial activity of the tested drugs. The efficacy against biofilm-embedded bacteria was assessed qualitatively and quantitatively following aseptic explantation of the tissue cages 3 days after the completion of treatment. The 3 days of resting period will help to avoid the antibiotic carryover effect. Upon explantation, cages were washed twice with phosphate buffered saline (PBS) (Lot #5060914) and immediately transferred into 5 mL 0.9% NaCl (Lot #L161619 or L162658). Following 30 s vortexing, sonication (3 min at 130 W), and an additional 30 s vortexing step the numbers of bacteria dispersed from biofilm was determined by plating. The sonicated cages were washed once with PBS, transferred into 5 mL TSB (Lot #0286463), and incubated for 48 h at 37° C., with an additional vortexing step after 24 h of incubation. After the incubation, tubes were vortexed again and bacterial regrowth was assessed visually. In addition, 100 μL of each culture was plated on blood agar plates to ascertain the regrowth. A positive culture was defined as a treatment failure. The efficacy of treatment against adherent bacteria is expressed as the cure rate (in percent), defined as the number of cages without growth divided by the total number of cages in the individual treatment group.

## CCCCCCCCCC(=O)N[C@@H](Cc1c[nH]c2ccccc12)C(=O)N[C@H](CC(N)=O)C(=O)N[C@@H](CC(=O)O)C(=O)N[C@@H]1C(=O)NCC(=O)N[C@@H](CCCN)C(=O)N[C@@H](CC(=O)O)C(=O)N[C@H](C)C(=O)N[C@@H](CC(=O)O)C(=O)NCC(=O)N[C@H](CO)C(=O)N[C@@H]([C@H](C)CC(=O)O)C(=O)N[C@@H](CC(=O)c2ccccc2N)C(=O)O[C@@H]1C [Daptomycin]
  Cure rate (%): 33%
  Adherent Mean: −3.91 log 10 CFU/mL
  day on which bactericidal effect (mean reduction of bacterial load by ≥3 Log10) on planktonic bacteria was exerted: 3 day
  Planktonic day 3 Mean: −3.10 Log10
  Planktonic day 6 Mean: −4.91 Log10
  Planktonic day 9 Mean: −3.60 Log10
Listed as DAP
  Adherent Δlog (individual animal): −4.48 log 10 CFU/mL (2×) and −2.78 log 10 CFU/mL
  Planktonic day 3 Δlog (individual animal): −2.41 Log10 and −4.79 Log10 and −0.67 Log10 and −5.15 Log10 and −2.91 Log10 and −2.70 Log10
  Planktonic day 9 Δlog (individual animal): −1.07 Log10 and −4.79 Log10 and 0.73 Log10 and −5.15 Log10 and −5.95 Log10 and −5.38 Log10
  Planktonic day 6 Δlog (individual animal): −5.72 Log10 and −4.79 Log10 and −2.46 Log10 and −5.15 Log10 and −5.95 Log10 and −5.38 Log10

## Cc1c(CN(C)C(=O)/C=C/c2cnc3c(c2)CCC(=O)N3COP(=O)(O)O)oc2ccccc12 [Debio 1450, {6-[(1E)-3-{methyl [(3-methyl-1-benzofuran-2-yl)methyl]amino}-3-oxoprop-1-en-1-yl]-2-oxo-3,4-dihydro-1,8-naphthyridin-1 (2H)-yl} methyl dihydrogen phosphate]
  Cure rate (%): 50%
  adherent bacteria reduction from baseline (mean±SD): 3.81±1.15 log 10 CFU/mL
  Adherent Δlog (individual animal): −4.48 log 10 CFU/mL (2×) and −2.48 log 10 CFU/mL
  Adherent Mean: −3.81 log 10 CFU/mL
  day on which bactericidal effect (mean reduction of bacterial load by ≥3 Log10) on planktonic bacteria was exerted: 6 day
  Planktonic day 3 Mean: −2.62 Log10
  Planktonic day 6 Mean: −4.45 Log10
  Planktonic day 9 Mean: −3.90 Log10
  Planktonic day 6 Δlog (individual animal): −3.24 Log10 and −2.69 Log10 and −5.64 Log10 and −5.10 Log10 and −4.91 Log10 and −5.09 Log10
  Planktonic day 3 Δlog (individual animal): −1.42 Log10 and −1.40 Log10 and −2.10 Log10 and −5.10 Log10 and −1.93 Log10 and −3.79 Log10
  Planktonic day 9 Δlog (individual animal): −5.85 Log10 and −3.41 Log10 and −1.32 Log10 and −5.10 Log10 and −4.91 Log10 and −2.79 Log10

## CO[C@H]1/C=C/O[C@@]2(C)Oc3c(C)c(O)c4c(O)c(c(/C=N/N5CCN(C)CC5)c(O)c4c3C2=O)NC(=O)/C(C)=C\C=C\[C@H](C)[C@H](O)[C@@H](C)[C@@H](O)[C@@H](C)[C@H](OC(C)=O)[C@@H]1C [Rifampicin]
  Cure rate (%): 100%
  adherent bacteria reduction from baseline (mean±SD): 3.37±0 log 10 CFU/mL
  Adherent Δlog (individual animal): −3.4 log 10 CFU/mL
  Adherent Mean: −3.37 log 10 CFU/mL
  day on which bactericidal effect (mean reduction of bacterial load by ≥3 Log10) on planktonic bacteria was exerted: 3 day
  Planktonic day 3 Mean: −4.53 Log10
  Planktonic day 6 Mean: −4.53 Log10
  Planktonic day 9 Mean: −4.53 Log10
Listed as RIF
  Planktonic day 3 Δlog (individual animal): −4.08 Log10 and −6.73 Log10 and −3.5 Log10 and −3.4 Log10 and −4.9 Log10
  Planktonic day 9 Δlog (individual animal): −4.08 Log10 and −6.73 Log10 and −3.5 Log10 and −3.4 Log10 and −4.9 Log10
  Planktonic day 6 Δlog (individual animal): −4.08 Log10 and −6.73 Log10 and −3.5 Log10 and −3.4 Log10 and −4.9 Log10
